In paper PMC8180025, “Antibacterial, antifungal and antioxidant activities of whole plant chemical constituents of Rumex abyssinicus” (BMC Complementary Medicine and Therapies, 2021):
Converted amounts (≈) assume the structure as drawn. “And” between values parts separate entries of the source, which are not always exact repeats. Identical values can stand only once. Marks after values point to notes of the source that are not given here.

Legend:
P. aeruginosa [1] = assay: Checkerboard combination with antibiotic (FIC); format: cell-based, Pseudomonas aeruginosa; conditions: combined with ciprofloxacin
S. flexneri [2] = assay: Checkerboard combination with antibiotic (FIC); format: cell-based, Shigella flexneri; conditions: combined with ciprofloxacin
Description: (§1) The inoculum was initially prepared as described above. The test microorganisms were inoculated into a 96-well microtitre plates and a serial dilution of two antimicrobial agents: antibiotic and MeOH extract, compound 2 or 4. Each well consisted of unique combination of test sample and antibiotic concentrations. The plates were then incubated for 24 h at 37 °C. The analyses were performed in triplicates. And the antimicrobial agents interactions were evaluated by calculating the fractional inhibitory concentration (FIC) indices. The FIC is defined as follows: MIC of antibiotic tested in combination/MIC of antibiotic tested alone + MIC of extract/compound tested in combination/MIC of extract/compound tested alone. The FIC index is interpreted as FIC ≤ 0.5: synergistic effect, 0.5 < FIC ≤1: additive effect, 1 < FIC ≤2: indifferent effect, and FIC > 2.0: antagonistic effect.

S. aureus = assay: Checkerboard combination with antibiotic (FIC); format: cell-based, Staphylococcus aureus; conditions: combined with ciprofloxacin
MSSA01 = assay: Checkerboard combination with antibiotic (FIC); format: cell-based, Staphylococcus aureus; conditions: combined with ciprofloxacin
MRSA03 = assay: Checkerboard combination with antibiotic (FIC); format: cell-based, Staphylococcus aureus; conditions: combined with ciprofloxacin
C. albicans = assay: Checkerboard combination with antibiotic (FIC); format: cell-based, Candida albicans; conditions: combined with fluconazole
C. neoformans = assay: Checkerboard combination with antibiotic (FIC); format: cell-based, Cryptococcus neoformans; conditions: combined with fluconazole
[3] = DPPH free radical scavenging assay; format: biochemical; conditions: mean ± SD, triplicate
Description: The free radical scavenging activity of extracts and compounds was evaluated according to described methods. The EC50 (μg/ml), which is the amount of sample necessary to inhibit by 50% the absorbance of free radical DPPH was calculated. Vitamin C was used as a standard control. All the analyses were carried out in triplicate.

[4] = Gallic acid equivalent antioxidant capacity (GEAC) assay; format: biochemical; conditions: laccase/ABTS, 420 nm after 240 s; mean ± SD
Description: The GEAC test was done as previously described with slight modifications. In a quartz cuvette, to 950 μL acetate buffer (pH =5.0, 100 mM), the following were added: 20 μL laccase (1 mM stock solution), 20 μL test sample, 10 μL ABTS (2,2′-azinobis(3-ethylbenzothiazoline-6-sulfonic acid) (74 mM stock solution). The purification of laccase from Sclerotinia sclerotiorum was done according to the protocol described. The sample concentrations in the assay mixture were 800, 400, 200, 100, 10 μg/mL for the extracts and 200, 100, 50, 25, 12.5, 6.25, 3.125, 1.56 μg/mL for the isolated compounds. The content of the generated ABTS^●+ radical was measured at 420 nm after 240 s reaction time and was converted to gallic acid equivalents by the use of a calibration curve (Pearson’s correlation coefficient: r = 0.997) constructed with 0, 4, 10, 14, 28, 56, 84 μM gallic acid standards rather than Trolox. Experiments were done in triplicate.

P. aeruginosa [5] = assay: Cell membrane leakage assay (260 and 280 nm absorbing material); format: cell-based, Pseudomonas aeruginosa; conditions: at concentrations equal to or two times MIC, concentration dependent
Description: (§2) The alteration of cell membrane of P. aeruginosa and S. flexneri was evaluated by measuring the optical densities at 260 nm and 280 nm of the bacterial suspensions in the presence and absence of MeOH extract and compound 2 using the method described by Karsha and Lakshmi.

S. flexneri [6] = assay: as above; format: cell-based, Shigella flexneri; conditions: at concentrations equal to or two times MIC, concentration dependent
Description: as §2

S. flexneri [7] = assay: Sugar leakage through membrane of bacteria; format: cell-based, Shigella flexneri; conditions: ½ MIC, 2 MIC, 12 h
[8] = test system: respiratory chain dehydrogenase in P. aeruginosa; assay: Respiratory chain dehydrogenase enzyme activity (TTC reduction); format: cell-based, Pseudomonas aeruginosa; conditions: increasing concentration, 0, 30, 60 min
[9] = test system: respiratory chain dehydrogenase in S. flexneri; format: cell-based, Shigella flexneri; conditions: 0, 30, 60 min
[10] = test system: bacterial and yeast species; assay: Checkerboard combination with antibiotics, whole panel; format: cell-based; conditions: overall statement over the microorganisms tested
Description: as §1

[11] = test system: Pseudomonas aeruginosa ATCC27853; assay: Broth microdilution MIC/MMC
Shigella flexneri SDINT = assay: Broth microdilution MIC/MMC
[12] = test system: Staphylococcus aureus ATCC25923; assay: Broth microdilution MIC/MMC
[13] = test system: methicillin sensitive S. aureus MSSA01; assay: Broth microdilution MIC/MMC
[14] = test system: methicillin resistant S. aureus MRSA03; assay: Broth microdilution MIC/MMC
[15] = test system: Candida albicans ATCC10231; assay: Broth microdilution MIC/MMC
[16] = test system: Cryptococcus neoformans H99; assay: Broth microdilution MIC/MMC
P. aeruginosa [17] = assay: Sugar leakage through membrane of bacteria; conditions: ½ MIC, 2 MIC, 12 h
Description: After incubation, the mixture was centrifuged at 12,000 rpm and the supernatant was collected. The concentration of reducing sugar was determined spectrophotometrically at 550 nm using 3–5 dinitro-salicylic acid (DNS) [29].

red blood cells (RBCs) = format: cell-based, Wistar rats (Rattus novergicus)
Description: Three male Wistar rats (Rattus novergicus), aged 10–12 weeks and weighing 230 to 240 g were used. These animals were bred in the animal house of the University of Dschang, Cameroon. Efforts were also made to minimize animal suffering and to reduce the number of animal used in the experiment. All the rats were anaesthesized via intraperitoneal injection of the mixture of ketamine (50 mg/ kg body weight, BW) and xylazine (10 mg /kg BW), in a dose that is commonly used for operation purposes. Subsequently the unconscious animals were decapitated swiftly and the whole blood (10 mL) was collected by cardiac puncture into a conical tube containing Ethylene Diamine Tetra Acetic Acid (EDTA) as an anticoagulant. Erythrocytes were obtained by centrifugation at room temperature for 10 min at 1000 x g and were washed three times in PBS buffer. The cytotoxicity was evaluated as previously described.
The cytotoxic activity of extracts and isolated compounds from R. abyssinicus was studied by assessing the haemolytic activity against red blood cells (RBCs) using Triton X-100 as a positive control.

COc1cc(O)c2c(c1)C(=O)c1cc(C)cc(O)c1C2=O [Compound 2, Physcion]
Interpretation (of FIC index) (P. aeruginosa [1]): Synergistic (FIC ≤ 0.5: synergistic effect) | FICEx / FIC2 / FIC5 (MIC of extract/compound tested in combination/MIC of extract/compound tested alone) (P. aeruginosa [1]; checkerboard): 0.125 | FICA (MIC of antibiotic tested in combination/MIC of antibiotic tested alone) (P. aeruginosa [1]; checkerboard, 24 h at 37 °C): 0.125 | Interpretation (of FIC index) (S. flexneri [2]): Synergistic (FIC ≤ 0.5: synergistic effect) | FIC (fractional inhibitory concentration index) (S. flexneri [2]; checkerboard): 0.281 | FICEx / FIC2 / FIC5 (MIC of extract/compound tested in combination/MIC of extract/compound tested alone) (S. flexneri [2]; checkerboard): 0.25 | FICA (MIC of antibiotic tested in combination/MIC of antibiotic tested alone) (S. flexneri [2]; checkerboard, 24 h at 37 °C): 0.031 | Interpretation (of FIC index) (S. aureus): Synergistic (FIC ≤ 0.5: synergistic effect) | FIC (fractional inhibitory concentration index) (S. aureus; checkerboard): 0.375 | FICEx / FIC2 / FIC5 (MIC of extract/compound tested in combination/MIC of extract/compound tested alone) (S. aureus; checkerboard): 0.125 | FICA (MIC of antibiotic tested in combination/MIC of antibiotic tested alone) (S. aureus; checkerboard, 24 h at 37 °C): 0.25 | FIC (fractional inhibitory concentration index) (MSSA01): 0.5625 | FICEx / FIC2 / FIC5 (MIC of extract/compound tested in combination/MIC of extract/compound tested alone) (MSSA01): 0.5 | FICA (MIC of antibiotic tested in combination/MIC of antibiotic tested alone) (MSSA01; 24 h at 37 °C): 0.0625 | FIC (fractional inhibitory concentration index) (MRSA03): 0.5625 | FICEx / FIC2 / FIC5 (MIC of extract/compound tested in combination/MIC of extract/compound tested alone) (MRSA03): 0.5 | FICA (MIC of antibiotic tested in combination/MIC of antibiotic tested alone) (MRSA03; 24 h at 37 °C): 0.0625 | Interpretation (of FIC index) (C. albicans): Synergistic (FIC ≤ 0.5: synergistic effect) | FIC (fractional inhibitory concentration index) (C. albicans; checkerboard): 0.125 | FICEx / FIC2 / FIC5 (MIC of extract/compound tested in combination/MIC of extract/compound tested alone) (C. albicans; checkerboard): 0.0625 | FICA (MIC of antibiotic tested in combination/MIC of antibiotic tested alone) (C. albicans; checkerboard, 24 h at 37 °C): 0.0625 | Interpretation (of FIC index) (C. neoformans): Synergistic (FIC ≤ 0.5: synergistic effect) | FIC (fractional inhibitory concentration index) (C. neoformans; checkerboard): 0.125 | FICEx / FIC2 / FIC5 (MIC of extract/compound tested in combination/MIC of extract/compound tested alone) (C. neoformans; checkerboard): 0.0625 | FICA (MIC of antibiotic tested in combination/MIC of antibiotic tested alone) (C. neoformans; checkerboard, 24 h at 37 °C): 0.0625 | DPPH free radical scavenging activity (EC50) [3]: 3.08 ± 0.44^e μg/mL | Gallic acid equivalent antioxidant capacity (GEAC) [4]: 104.87 ± 1.43 μg/mL and 106.03 ± 0.87^d μg/mL | leakage of biological material absorbing at 260 and 280 nm (P. aeruginosa [5]): induced leakage | leakage of biological material absorbing at 260 and 280 nm (S. flexneri [6]): induced leakage | appearance of reducing sugar in the bacterial culture suspension (S. flexneri [7]): increased | respiratory chain dehydrogenase activity (TPF formed) [8]: significant decrease in the TPF formed | respiratory chain dehydrogenase activity (TPF formed) [9]: significant decrease in the TPF formed | effect of the association with ciprofloxacin (bacteria) / fluconazole (yeasts) [10]: synergistic | MMC/MIC ([11]; P. aeruginosa): 2 | MMC ([11]; P. aeruginosa, sub-culturing after broth microdilution): 16 µg/mL | MIC ([11]; Pseudomonas aeruginosa, ATCC27853): 8 µg/mL (≈ 28.1 µM) | MMC/MIC (Shigella flexneri SDINT; S. flexneri): 2 | MMC (Shigella flexneri SDINT; S. flexneri, sub-culturing after broth microdilution): 16 µg/mL | MIC (Shigella flexneri SDINT; Shigella flexneri): 8 µg/mL (≈ 28.1 µM) | MMC/MIC ([12]; S. aureus): 1 | MMC ([12]; S. aureus, sub-culturing after broth microdilution): 8 µg/mL | MIC ([12]; Staphylococcus aureus, ATCC25923): 8 µg/mL (≈ 28.1 µM) | MMC/MIC ([13]; MSSA01): 2 | MMC ([13]; MSSA01, sub-culturing after broth microdilution): 32 µg/mL | MIC ([13]; Staphylococcus aureus): 16 µg/mL (≈ 56.3 µM) | MMC/MIC ([14]; MRSA03): 2 | MMC ([14]; MRSA03, sub-culturing after broth microdilution): 32 µg/mL | MIC ([14]; Staphylococcus aureus): 16 µg/mL (≈ 56.3 µM) | MMC/MIC ([15]; C. albicans): 1 | MMC ([15]; C. albicans, sub-culturing after broth microdilution): 8 µg/mL | MIC ([15]; Candida albicans, ATCC10231): 8 µg/mL (≈ 28.1 µM) | MMC/MIC ([16]; C. neoformans): 1 | MMC ([16]; C. neoformans, sub-culturing after broth microdilution): 8 µg/mL | MIC ([16]; Cryptococcus neoformans, H99): 8 µg/mL (≈ 28.1 µM) | appearance of reducing sugar in the bacterial culture suspension (P. aeruginosa [17]): increased

Triton X-100
lysis of RBCs (red blood cells (RBCs)): 100%
